Experimental data published in ChEMBL document CHEMBL1135364, “Synthesis and structure-activity relationships of oxime neurokinin antagonists: discovery of potent arylamides” (Bioorg Med Chem Lett, 2002).

Experiments:
[1] = molecular target: T1, Substance-P receptor (Homo sapiens, UniProt P25103); assay: Tested for binding affinity against neurokinin 1 (NK1) receptor
[2] = molecular target: T2, Substance-K receptor (Homo sapiens, UniProt P21452); assay: Binding affinity test against Neurokinin 2 (NK2) receptor
T2 sequence (P21452 whole entry): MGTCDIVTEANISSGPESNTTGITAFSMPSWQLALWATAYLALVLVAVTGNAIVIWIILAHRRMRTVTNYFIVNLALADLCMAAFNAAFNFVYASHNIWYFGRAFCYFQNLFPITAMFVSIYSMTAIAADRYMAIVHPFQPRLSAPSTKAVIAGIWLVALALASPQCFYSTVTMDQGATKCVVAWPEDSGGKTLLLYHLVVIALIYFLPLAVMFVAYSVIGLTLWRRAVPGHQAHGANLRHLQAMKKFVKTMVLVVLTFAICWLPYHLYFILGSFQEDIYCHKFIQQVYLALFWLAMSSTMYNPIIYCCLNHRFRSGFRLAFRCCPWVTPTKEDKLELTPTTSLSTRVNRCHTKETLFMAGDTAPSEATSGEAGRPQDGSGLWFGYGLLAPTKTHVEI

[3] = molecular target: T3, Substance-K receptor (Homo sapiens) (UniProt P21452); assay: Tested for binding affinity of compound against Neurokinin 2 (NK2) receptor at 1 uM
T3 sequence (whole entry): T2 sequence (P21452 whole entry)

[4] = molecular target: T1, Substance-P receptor; assay: Affinity for human Neurokinin 1 (NK1) receptor expressed in CHO cells at 1 uM; type: cell-based
[5] = molecular target: T2, Substance-K receptor; assay: Tested for binding affinity of compound against Tachykinin receptor 2

T1 sequence (P25103 whole entry): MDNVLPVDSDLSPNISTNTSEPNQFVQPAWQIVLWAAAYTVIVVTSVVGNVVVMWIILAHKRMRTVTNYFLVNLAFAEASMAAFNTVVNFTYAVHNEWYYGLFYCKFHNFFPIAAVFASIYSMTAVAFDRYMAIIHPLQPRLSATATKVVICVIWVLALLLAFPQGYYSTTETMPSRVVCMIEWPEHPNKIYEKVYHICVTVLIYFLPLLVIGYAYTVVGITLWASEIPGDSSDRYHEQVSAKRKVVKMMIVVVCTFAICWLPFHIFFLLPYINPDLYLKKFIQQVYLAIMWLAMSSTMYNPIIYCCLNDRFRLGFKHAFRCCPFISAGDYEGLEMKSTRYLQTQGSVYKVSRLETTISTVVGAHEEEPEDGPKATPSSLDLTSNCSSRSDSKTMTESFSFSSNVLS

Structure (SMILES)	Ki [1]	Ki [2]	also measured
CO/N=C(\CN(C)S(=O)(=O)c1cc(C(F)(F)F)cc(C(F)(F)F)c1)C(CCN1CCC(O)(c2ccccc2)CC1)c1ccc(Cl)c(Cl)c1 (stereo unspecified)	435 nM	286 nM	
CO/N=C(\CCc1cc(C(F)(F)F)cc(C(F)(F)F)c1)C(CCN1CCC(O)(c2ccccc2)CC1)c1ccc(Cl)c(Cl)c1 (stereo unspecified)	23 nM		inhibition [3]: 51%
CO/N=C(\CN(C)C(=O)Oc1cc(C(F)(F)F)cc(C(F)(F)F)c1)C(CCN1CCC(O)(c2ccccc2)CC1)c1ccc(Cl)c(Cl)c1 (stereo unspecified)	6 nM	11 nM	
CO/N=C(\COCc1ccc2nonc2c1)C(CCN1CCC(O)(c2ccccc2)CC1)c1ccc(Cl)c(Cl)c1 (stereo unspecified)		17 nM	inhibition [4]: 29%
CO/N=C(\COCC1CCCCC1)C(CCN1CCC(O)(c2ccccc2)CC1)c1ccc(Cl)c(Cl)c1 (stereo unspecified)		13 nM	inhibition [4]: 21%
CO/N=C(\COCc1ccc(C(C)(C)C)cc1)C(CCN1CCC(O)(c2ccccc2)CC1)c1ccc(Cl)c(Cl)c1 (stereo unspecified)		4 nM	inhibition [4]: 6%
CO/N=C(\COCc1ccccc1)C(CCN1CCC(O)(c2ccccc2)CC1)c1ccc(Cl)c(Cl)c1 (stereo unspecified)		40 nM	inhibition [4]: 33%
CO/N=C(\CN(C)C(=O)c1cc(C)nc(N2CCCC2)c1)C(CCN1CCC(O)(c2ccccc2)CC1)c1ccc(Cl)c(Cl)c1 (stereo unspecified)	2 nM	3 nM	
CO/N=C(\COC/C=C/c1cc(C(F)(F)F)cc(C(F)(F)F)c1)C(CCN1CCC(O)(c2ccccc2)CC1)c1ccc(Cl)c(Cl)c1 (stereo unspecified)		20 nM	inhibition [4]: 36%
CO/N=C(\CN(C)C(=O)c1cc(C)cc(C)c1)C(CCN1CCC(O)(c2ccccc2)CC1)c1ccc(Cl)c(Cl)c1 (stereo unspecified)	1 nM	2 nM	
CO/N=C(\COCC12CC3CC(CC(C3)C1)C2)C(CCN1CCC(O)(c2ccccc2)CC1)c1ccc(Cl)c(Cl)c1 (stereo unspecified)		7 nM	inhibition [4]: 0%
CO/N=C(\CN(C)Cc1cc(C(F)(F)F)cc(C(F)(F)F)c1)C(CCN1CCC(O)(c2ccccc2)CC1)c1ccc(Cl)c(Cl)c1 (stereo unspecified)	42 nM	22 nM	
CO/N=C(\COCc1cc(F)cc(C(F)(F)F)c1)C(CCN1CCC(O)(c2ccccc2)CC1)c1ccc(Cl)c(Cl)c1 (stereo unspecified)		10 nM	
CO/N=C(\COC(=O)c1cc(C(F)(F)F)cc(C(F)(F)F)c1)C(CCN1CCC(O)(c2ccccc2)CC1)c1ccc(Cl)c(Cl)c1 (stereo unspecified)	168 nM	25 nM	
CO/N=C(\CN(C)C(=O)c1ccc(N(C)C)c2ccccc12)C(CCN1CCC(O)(c2ccccc2)CC1)c1ccc(Cl)c(Cl)c1 (stereo unspecified)		7 nM	
CO/N=C(\CN(C)C(=O)c1cc(OC)c(Br)c(OC)c1)C(CCN1CCC(O)(c2ccccc2)CC1)c1ccc(Cl)c(Cl)c1 (stereo unspecified)	5 nM	8 nM	
CO/N=C(\COCc1ccc(-c2ccccc2)cc1)C(CCN1CCC(O)(c2ccccc2)CC1)c1ccc(Cl)c(Cl)c1 (stereo unspecified)		38 nM	inhibition [4]: 2%
CO/N=C(\CN(C)C(=O)c1ccccc1OC)C(CCN1CCC(O)(c2ccccc2)CC1)c1ccc(Cl)c(Cl)c1 (stereo unspecified)		4 nM	
CO/N=C(\CNC(=O)c1ccccc1OC)C(CCN1CCC(O)(c2ccccc2)CC1)c1ccc(Cl)c(Cl)c1 (stereo unspecified)		54 nM	
CO/N=C(\CN(C)C(=O)c1cncc(Br)c1)C(CCN1CCC(O)(c2ccccc2)CC1)c1ccc(Cl)c(Cl)c1 (stereo unspecified)	7 nM	4 nM	
CO/N=C(\COc1cc(C(F)(F)F)cc(C(F)(F)F)c1)C(CCN1CCC(O)(c2ccccc2)CC1)c1ccc(Cl)c(Cl)c1 (stereo unspecified)	81 nM		inhibition [3]: 31%
CO/N=C(\CN(C)C(=O)c1cc(C)nc(C)c1)C(CCN1CCC(O)(c2ccccc2)CC1)c1ccc(Cl)c(Cl)c1 (stereo unspecified)		6 nM	
CO/N=C(\COCc1ccc(C)cc1)C(CCN1CCC(O)(c2ccccc2)CC1)c1ccc(Cl)c(Cl)c1 (stereo unspecified)		9 nM	inhibition [4]: 48%
CO/N=C(\COC(=O)Nc1cc(C(F)(F)F)cc(C(F)(F)F)c1)C(CCN1CCC(O)(c2ccccc2)CC1)c1ccc(Cl)c(Cl)c1 (stereo unspecified)	32 nM	35 nM	
CO/N=C(\CN(C)C(=O)Nc1cc(C(F)(F)F)cc(C(F)(F)F)c1)C(CCN1CCC(O)(c2ccccc2)CC1)c1ccc(Cl)c(Cl)c1 (stereo unspecified)	5 nM	8 nM	
CO/N=C(\CN(C)C(=O)c1cc(C)nc(N(C)C)c1)C(CCN1CCC(O)(c2ccccc2)CC1)c1ccc(Cl)c(Cl)c1 (stereo unspecified)	2 nM	1 nM	
CO/N=C(\CNC(=O)c1cc(C(F)(F)F)cc(C(F)(F)F)c1)C(CCN1CCC(O)(c2ccccc2)CC1)c1ccc(Cl)c(Cl)c1 (stereo unspecified)		2 nM	

Structure (SMILES)	Ki [1]	Ki [2]	also measured
CO/N=C(\CNCc1cc(C(F)(F)F)cc(C(F)(F)F)c1)C(CCN1CCC(O)(c2ccccc2)CC1)c1ccc(Cl)c(Cl)c1 (stereo unspecified)	50 nM	130 nM	
CO/N=C(\COCc1ccc2sc(C)nc2c1)C(CCN1CCC(O)(c2ccccc2)CC1)c1ccc(Cl)c(Cl)c1 (stereo unspecified)		21 nM	inhibition [4]: 48%
CO/N=C(\COCc1cc(OC)c(OC)c(OC)c1)C(CCN1CCC(O)(c2ccccc2)CC1)c1ccc(Cl)c(Cl)c1 (stereo unspecified)		28 nM	
CO/N=C(\COCc1noc(C(C)(C)C)n1)C(CCN1CCC(O)(c2ccccc2)CC1)c1ccc(Cl)c(Cl)c1 (stereo unspecified)		1 nM	
CO/N=C(/COCc1cc(C(F)(F)F)cc(C(F)(F)F)c1)C(CCN1CCC(O)(c2ccccc2)CC1)c1ccc(Cl)c(Cl)c1 (stereo unspecified)			Ki [5]: 21 nM
CO/N=C(\COCc1cc(F)cc(F)c1)C(CCN1CCC(O)(c2ccccc2)CC1)c1ccc(Cl)c(Cl)c1 (stereo unspecified)		42 nM	
CO/N=C(\CN(C)C(=O)c1ccc(C)s1)C(CCN1CCC(O)(c2ccccc2)CC1)c1ccc(Cl)c(Cl)c1 (stereo unspecified)		2 nM	
CO/N=C(\COCc1cc(OC)cc(OC)c1)C(CCN1CCC(O)(c2ccccc2)CC1)c1ccc(Cl)c(Cl)c1 (stereo unspecified)		18 nM	
CO/N=C(\COCc1ccccn1)C(CCN1CCC(O)(c2ccccc2)CC1)c1ccc(Cl)c(Cl)c1 (stereo unspecified)		43 nM	
CO/N=C(\COCc1ccc2ccccc2c1)C(CCN1CCC(O)(c2ccccc2)CC1)c1ccc(Cl)c(Cl)c1 (stereo unspecified)		12 nM	inhibition [4]: 37%
CO/N=C(\COCCc1cc(C(F)(F)F)cc(C(F)(F)F)c1)C(CCN1CCC(O)(c2ccccc2)CC1)c1ccc(Cl)c(Cl)c1 (stereo unspecified)	39 nM	118 nM	
CO/N=C(\C(C)OCc1cc(C(F)(F)F)cc(C(F)(F)F)c1)C(CCN1CCC(O)(c2ccccc2)CC1)c1ccc(Cl)c(Cl)c1 (stereo unspecified)	75 nM	157 nM	
CO/N=C(\CCCc1cc(C(F)(F)F)cc(C(F)(F)F)c1)C(CCN1CCC(O)(c2ccccc2)CC1)c1ccc(Cl)c(Cl)c1 (stereo unspecified)	92 nM	332 nM	
CO/N=C(\COCc1ccccc1C)C(CCN1CCC(O)(c2ccccc2)CC1)c1ccc(Cl)c(Cl)c1 (stereo unspecified)		136 nM	inhibition [4]: 34%
CO/N=C(\CN(C)C(=O)c1cc(C)nc(-c2cccs2)c1)C(CCN1CCC(O)(c2ccccc2)CC1)c1ccc(Cl)c(Cl)c1 (stereo unspecified)	2 nM	6 nM	
CO/N=C(\COCc1cc(C)cc(C)c1)C(CCN1CCC(O)(c2ccccc2)CC1)c1ccc(Cl)c(Cl)c1 (stereo unspecified)		8 nM	
CO/N=C(\CN(C)C(=O)c1cc(Cl)cc(Cl)c1)C(CCN1CCC(O)(c2ccccc2)CC1)c1ccc(Cl)c(Cl)c1 (stereo unspecified)	2 nM	4 nM	
CO/N=C(\COCc1cc(Br)cc(Br)c1)C(CCN1CCC(O)(c2ccccc2)CC1)c1ccc(Cl)c(Cl)c1 (stereo unspecified)	10 nM	15 nM	
CO/N=C(\CN(C)C(=O)c1cc(OC)cc(OC)c1)C(CCN1CCC(O)(c2ccccc2)CC1)c1ccc(Cl)c(Cl)c1 (stereo unspecified)	5 nM	2 nM	
CO/N=C(\CN(C)C(=O)c1cc(C(F)(F)F)cc(C(F)(F)F)c1)C(CCN1CCC(O)(c2ccccc2)CC1)c1ccc(Cl)c(Cl)c1 (stereo unspecified)	4 nM	9 nM	
CO/N=C(\COCc1cc(C(C)(C)C)cc(C(C)(C)C)c1)C(CCN1CCC(O)(c2ccccc2)CC1)c1ccc(Cl)c(Cl)c1 (stereo unspecified)		130 nM	inhibition [4]: 19%
CO/N=C(\COCc1ccc(F)c2ccccc12)C(CCN1CCC(O)(c2ccccc2)CC1)c1ccc(Cl)c(Cl)c1 (stereo unspecified)		21 nM	
CO/N=C(\C(=O)N(C)Cc1cc(C(F)(F)F)cc(C(F)(F)F)c1)C(CCN1CCC(O)(c2ccccc2)CC1)c1ccc(Cl)c(Cl)c1 (stereo unspecified)	6 nM	167 nM	
CO/N=C(\COCc1ccc2ccc(C(F)(F)F)nc2c1)C(CCN1CCC(O)(c2ccccc2)CC1)c1ccc(Cl)c(Cl)c1 (stereo unspecified)		20 nM	inhibition [4]: 23%
CO/N=C(\COCc1cc(Cl)cc(Cl)c1)C(CCN1CCC(O)(c2ccccc2)CC1)c1ccc(Cl)c(Cl)c1 (stereo unspecified)		6 nM	
CO/N=C(\CO/C=C/c1cc(C(F)(F)F)cc(C(F)(F)F)c1)C(CCN1CCC(O)(c2ccccc2)CC1)c1ccc(Cl)c(Cl)c1 (stereo unspecified)		100 nM	inhibition [4]: 20%
CO/N=C(\CN(C)C(=O)c1cc(OC)c(OC)c(OC)c1)C(CCN1CCC(O)(c2ccccc2)CC1)c1ccc(Cl)c(Cl)c1 (stereo unspecified)		3 nM	
